# In patent publication US8946216B2, “Indazole derivatives useful as ERK inhibitors” (Merck Sharp & Dohme Corp., priority 2010, dated 2015):
# Experiments:
# [1] = target: unphosphorylated Mouse ERK2 protein (inactive ERK2) (Mus musculus, UniProt P63085); assay: Coupled ERK2 (cERK) assay, coupled MEK1/ERK2 IMAP; format: biochemical; conditions: 30 min preincubation with inactive ERK2, then activation by human MEK1; 30 μM ATP; fluorescence polarization; read-out: cERK2 IC50
# Description: • 1. M. W. Pantoliana, E. C. Petrella, J. D. Kwasnoski, V. S. Lobanov, J. Myslik, E. Graf, T. Carver, E. Asel, B. A. Springer, P. Lane, F. R. Salemme, High-density miniaturized thermal shift assays as a general strategy for drug discovery, J. Biomol. Screen 6 (2001) 429-440 • 2. J. F. Brandts, L.-N. Lin, Study of strong to ultratight protein interactions using differential scanning calorimetry, Biochemistry 29 (1990) 6927-6940 • 3. Mayhood, T. W., Windsor, W. T., Ligand binding affinity determined by temperature-dependent circular dichroism: Cyclin-dependent kinase 2 inhibitors, Analytical Biochemistry 345 (2005) 187-197 Coupled ERK2 (cERK) Assay:
# 14 μl of kinase buffer (10 mM Tris.HCl pH 7.2, 10 mM MgCl2, 0.01% Tween-20, 1 mM DTT) containing 0.4 ng unphosphorylated Mouse ERK2 protein was added to each well of a black 384-well assay plate. […] DMSO concentration during initial incubation is 6.7%. ERK2 activity was determined to be insensitive to DMSO concentrations up to 20%. ERK2 was then activated and it's kinase activity measured by the addition of 10 μl kinase buffer with the following components (final concentration per reaction): 2 ng active (phosphorylated) human MEK1 protein and 4 μM (total) ERK2 IMAP substrate peptides (3.9 μM unlabeled IPTTPITTTYFFFK-CONH2 and 100 nM IPTTPITTTYFFFK(5-carboxyfluorescein)-CONH2) and 30 μM ATP. DMSO concentration during ERK activation was 4%. After one hour, reactions were terminated by addition of 60 μl IMAP detections beads in binding buffer (Molecular Devices). Binding was allowed to equilibrate for 30 minutes before reading the plate on an LJL Analyst Fluorescence Polarization plate reader. […] Active compounds were reconfirmed in an independent assay.
# ERK protein = ERK protein (Homo sapiens, UniProt P28482); assay: TdF (Temperature Dependence Fluorescence, thermal shift) assay for ERK; format: binding; conditions: read-out: TdF Kd; 3 μM ERK protein, 15, 50 or 100 μM compound, Sypro Orange; Kd calculated from ΔTm; uncertainty estimated ±50%
# Description: Assays: TdF Assay for ERK
# The SAR (Structure Activity Relationship) for ERK ligands covered by this invention was interrogated using the TdF (Temperature Dependence Fluorescence) assay or best known as thermal shift assay. The TdF assay was mainly conducted in the 96-well based CHROMO-4 real time fluorescence plate reader (BioRad). The Sypro Orange (Sigma-Aldrich), environmentally sensitive fluorescence dye, was used to monitor the protein folding-unfolding transition. Protein-ligand binding was gauged by the change (or shift) in the unfolding transition temperature (ΔTm) acquired at protein alone with respect to protein in the presence of ligand of interest.
# Compound of interest was first prepared in DMSO stock (typical concentration: 10 mM). Sample of 20 μL was then added into the 96-well PCR plate, where it consisted of 3 μM. […] Final percentage of DMSO resided in the sample was 2%. The sample plate was heated from 30° C. to 90° C. with thermal ramping rate of 1 ° C./min. The fluorescence signals were acquired with excitation and emission wavelengths centered at 490 and 560 nm respectively. The instrument thermal stability was ±0.2° C. The melting temperatures (Tm) for ERK protein under aforementioned conditions occurred at 61.0±0.2° C. and 64.8±0.2° C. respectively.
# Theoretical Basis for TdF-based Ligand Binding Affinity Constant
# The derivation of TdF-based ligand binding affinity constant (Kd) followed closely those previously formulated by Brandts and Lin [2]. In brief, the binding constant of the ligand at the Tm is expressed as below: […]
# where T0 is the midpoint of unfolding for unliganded protein and Tm is the midpoint of unfolding in presence of ligand. [LTm] is free ligand at Tm. The ΔHu and ΔCpu are the enthalpy of unfolding and heat capacity change of unfolding for the protein respectively. Following algorithm derived by Winsor and coworker, the T0, ΔHu and ΔCpu can be determined separately from nonlinear regression fitting the protein alone melting curve:
# Where F(T) is the observed fluorescence intensity at any temperature T, Yn and Yu are the predicted fluorescence intensities for fully folded and unfolded protein, respectively; mn and mu are slope correction for changes in Yn and Yu with respect to changes in temperature (analogously replace T0 with Tm in the above equation for liganded protein to yield Tm).
# where ΔHL(T) is the van't Hoff enthalpy of ligand binding at temperature T and ΔCpL is the heat capacity upon ligand binding. For simplicity, the ΔCpL and ΔHL(T) were set to zero and −7 kcal/mol respectively. The uncertainty in the calculated ligand binding affinity constant was estimated to be ±50%.
# Chain of ERK protein (P28482 2-360): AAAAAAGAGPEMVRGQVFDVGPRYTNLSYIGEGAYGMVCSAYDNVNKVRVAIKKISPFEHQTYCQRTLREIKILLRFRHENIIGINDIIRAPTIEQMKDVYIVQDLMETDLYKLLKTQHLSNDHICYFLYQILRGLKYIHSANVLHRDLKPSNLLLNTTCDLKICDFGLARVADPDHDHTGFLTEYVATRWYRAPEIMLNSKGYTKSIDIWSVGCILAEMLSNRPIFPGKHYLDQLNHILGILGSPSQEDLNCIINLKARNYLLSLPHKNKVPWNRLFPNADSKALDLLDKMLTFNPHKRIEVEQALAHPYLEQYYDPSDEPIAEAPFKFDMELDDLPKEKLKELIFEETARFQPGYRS
# Chain of unphosphorylated Mouse ERK2 protein (inactive ERK2) (P63085 whole entry): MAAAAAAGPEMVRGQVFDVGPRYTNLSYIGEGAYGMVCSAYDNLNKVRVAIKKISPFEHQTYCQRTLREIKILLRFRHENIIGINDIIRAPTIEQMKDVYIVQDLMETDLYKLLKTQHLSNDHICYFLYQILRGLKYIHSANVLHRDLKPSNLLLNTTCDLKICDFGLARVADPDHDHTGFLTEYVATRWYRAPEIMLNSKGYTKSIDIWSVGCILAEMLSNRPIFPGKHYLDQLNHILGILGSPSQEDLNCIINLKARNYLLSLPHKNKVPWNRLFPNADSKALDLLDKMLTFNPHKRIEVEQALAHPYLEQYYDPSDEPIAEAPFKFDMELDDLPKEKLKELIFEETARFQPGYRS
SMILES,IC50 [1] [nM],Kd (ERK protein) [nM]
"O=C(Nc1ccc2[nH]nc(-c3ccncc3)c2c1)C1CN(Cc2ccsc2)CCO1 (stereo not shown) [Compound 3, N-[3-(4-PYRIDINYL)-1H-INDAZOL-5-YL]-4-(3-THIENYLMETHYL)-2-MORPHOLINECARBOXAMIDE]",87.6,77
"O=C(Nc1ccc2[nH]nc(-c3ccncc3)c2c1)C1CN(Cc2ccccc2Br)CCS1 (stereo not shown) [Compound 6, 4-[(2-BROMOPHENYL)METHYL]-N-[3-(4-PYRIDINYL)-1H-INDAZOL-5-YL]-2-THIOMORPHOLINECARBOXAMIDE]",114,38
"O=C(Nc1ccc2[nH]nc(-c3ccncc3)c2c1)C1CN(Cc2ccccc2Br)CCO1 (stereo not shown) [Compound 7, 4-[(2-BROMOPHENYL)METHYL]-N-[3-(4-PYRIDINYL)-1H-INDAZOL-5-YL]-2-MORPHOLINECARBOXAMIDE]",96.9,17
"O=C(Nc1ccc2[nH]nc(-c3ccncc3)c2c1)C1CN(Cc2cccnc2)CCS1 (stereo not shown) [Compound 8, N-[3-(4-PYRIDINYL)-1H-INDAZOL-5-YL]-4-(3-PYRIDINYLMETHYL)-2-THIOMORPHOLINECARBOXAMIDE]",1070,4610
"O=C(Nc1ccc2[nH]nc(-c3ccncc3)c2c1)C1CN(Cc2ccccn2)CCS1 (stereo not shown) [Compound 12, N-[3-(4-PYRIDINYL)-1H-INDAZOL-5-YL]-4-(2-PYRIDINYLMETHYL)-2-THIOMORPHOLINECARBOXAMIDE]",1310,674
"O=C(Nc1ccc2[nH]nc(-c3ccncc3)c2c1)C1CN(Cc2cscn2)CCS1 (stereo not shown) [Compound 13, N-[3-(4-PYRIDINYL)-1H-INDAZOL-5-YL]-4-(4-THIAZOLYLMETHYL)-2-THIOMORPHOLINECARBOXAMIDE]",929,201
"O=C(Nc1ccc2[nH]nc(-c3ccncc3)c2c1)C1CN(Cc2ccsc2)CCS1 (stereo not shown) [Compound 14, N-[3-(4-PYRIDINYL)-1H-INDAZOL-5-YL]-4-(3-THIENYLMETHYL)-2-THIOMORPHOLINECARBOXAMIDE]",183,34
"O=C(Nc1ccc2[nH]nc(-c3ccncc3)c2c1)C1CN(Cc2ccccc2Cl)CCO1 (stereo not shown) [Compound 15, 4-[(2-CHLOROPHENYL)METHYL]-N-[3-(4-PYRIDINYL)-1H-INDAZOL-5-YL]-2-MORPHOLINECARBOXAMIDE]",77.8,17
"O=C(Nc1ccc2[nH]nc(-c3ccncc3)c2c1)C1CN(Cc2ccccc2)CCO1 (stereo not shown) [Compound 20, 4-(PHENYLMETHYL)-N-[3-(4-PYRIDINYL)-1H-INDAZOL-5-YL]-2-MORPHOLINECARBOXAMIDE]",51.1,10
"O=C(Nc1ccc2[nH]nc(-c3ccncc3)c2c1)C1CCCN(Cc2ccccc2Br)C1 (stereo not shown) [Compound 21, 1-[(2-BROMOPHENYL)METHYL]-N-[3-(4-PYRIDINYL)-1H-INDAZOL-5-YL]-3-PIPERIDINECARBOXAMIDE]",130,4
"O=C(Nc1ccc2[nH]nc(-c3ccncc3)c2c1)C1CCCN(Cc2ccccc2F)C1 (stereo not shown) [Compound 22, 1-[(2-FLUOROPHENYL)METHYL]-N-[3-(4-PYRIDINYL)-1H-INDAZOL-5-YL]-3-PIPERIDINECARBOXAMIDE]",27.3,9
"O=C(Nc1ccc2[nH]nc(-c3ccncc3)c2c1)C1CCCN(Cc2ccccc2Cl)C1 (stereo not shown) [Compound 23, 1-[(2-CHLOROPHENYL)METHYL]-N-[3-(4-PYRIDINYL)-1H-INDAZOL-5-YL]-3-PIPERIDINECARBOXAMIDE]",158,3
"O=C(Nc1ccc2[nH]nc(-c3ccncc3)c2c1)C1CCCN(Cc2ccccc2)C1 (stereo not shown) [Compound 24, 1-(PHENYLMETHYL)-N-[3-(4-PYRIDINYL)-1H-INDAZOL-5-YL]-3-PIPERIDINECARBOXAMIDE]",239,20
"O=C(Nc1ccc2[nH]nc(-c3ccncc3)c2c1)C1CCCNC1 (stereo not shown) [Compound 25, N-[3-(4-PYRIDINYL)-1H-INDAZOL-5-YL]-3-PIPERIDINECARBOXAMIDE]",631,4500

# Next, values leading:
IC50 [1] [nM],Kd (ERK protein) [nM],SMILES
4870,1100,"CN1CCCC(C(=O)Nc2ccc3[nH]nc(-c4ccncc4)c3c2)C1 (stereo not shown) [Compound 26, 1-METHYL-N-[3-(4-PYRIDINYL)-1H-INDAZOL-5-YL]-3-PIPERIDINECARBOXAMIDE]"
538,3530,"O=C(Nc1ccc2[nH]nc(-c3ccncc3)c2c1)C1CN(Cc2ccc(Cl)cc2)CCO1 (stereo not shown) [Compound 27, 4-[(4-CHLOROPHENYL)METHYL]-N-[3-(4-PYRIDINYL)-1H-INDAZOL-5-YL]-2-MORPHOLINECARBOXAMIDE]"
290,3620,"COc1cccc(CN2CCOC(C(=O)Nc3ccc4[nH]nc(-c5ccncc5)c4c3)C2)c1 (stereo not shown) [Compound 28, 4-[(3-METHOXYPHENYL)METHYL]-N-[3-(4-PYRIDINYL)-1H-INDAZOL-5-YL]-2-MORPHOLINECARBOXAMIDE]"
1280,3290,"N#Cc1ccc(CN2CCOC(C(=O)Nc3ccc4[nH]nc(-c5ccncc5)c4c3)C2)cc1 (stereo not shown) [Compound 30, 4-[(4-CYANOPHENYL)METHYL]-N-[3-(4-PYRIDINYL)-1H-INDAZOL-5-YL]-2-MORPHOLINECARBOXAMIDE]"
1180,2720,"N#Cc1cccc(CN2CCOC(C(=O)Nc3ccc4[nH]nc(-c5ccncc5)c4c3)C2)c1 (stereo not shown) [Compound 31, 4-[(3-CYANOPHENYL)METHYL]-N-[3-(4-PYRIDINYL)-1H-INDAZOL-5-YL]-2-MORPHOLINECARBOXAMIDE]"
383,775,"N#Cc1ccccc1CN1CCOC(C(=O)Nc2ccc3[nH]nc(-c4ccncc4)c3c2)C1 (stereo not shown) [Compound 32, 4-[(2-CYANOPHENYL)METHYL]-N-[3-(4-PYRIDINYL)-1H-INDAZOL-5-YL]-2-MORPHOLINECARBOXAMIDE]"
226,1140,"COc1ccc(CN2CCOC(C(=O)Nc3ccc4[nH]nc(-c5ccncc5)c4c3)C2)cc1 (stereo not shown) [Compound 33, 4-[(4-METHOXYPHENYL)METHYL]-N-[3-(4-PYRIDINYL)-1H-INDAZOL-5-YL]-2-MORPHOLINECARBOXAMIDE]"
556,588,"COc1ccc(CN2CCOC(C(=O)Nc3ccc4[nH]nc(-c5ccncc5)c4c3)C2)c(F)c1 (stereo not shown) [Compound 38, 4-[(2-FLUORO-4-METHOXYPHENYL)METHYL]-N-[3-(4-PYRIDINYL)-1H-INDAZOL-5-YL]-2-MORPHOLINECARBOXAMIDE]"
4760,715,"O=C(Nc1ccc2[nH]nc(-c3ccncc3)c2c1)C1CN(Cc2c(F)cccc2C(F)(F)F)CCO1 (stereo not shown) [Compound 39, 4-[[2-FLUORO-6-(TRIFLUOROMETHYL)PHENYL]METHYL]-N-[3-(4-PYRIDINYL)-1H-INDAZOL-5-YL]-2-MORPHOLINECARBOXAMIDE]"
1110,1190,"COc1cc(F)c(CN2CCOC(C(=O)Nc3ccc4[nH]nc(-c5ccncc5)c4c3)C2)cc1OC (stereo not shown) [Compound 40, 4-[(2-FLUORO-4,5-DIMETHOXYPHENYL)METHYL]-N-[3-(4-PYRIDINYL)-1H-INDAZOL-5-YL]-2-MORPHOLINECARBOXAMIDE]"
–,84.1,"O=C(Nc1ccc2[nH]nc(-c3ccncc3)c2c1)C1CN(Cc2ccccc2)CCC1O (stereo not shown) [Compound 71, 4-HYDROXY-1-(PHENYLMETHYL)-N-[3-(4-PYRIDINYL)-1H-INDAZOL-5-YL]-3-PIPERIDINECARBOXAMIDE]"
